Legend:
Mus musculus [1] = assay: In vivo AMPA antagonistic activity was determined by measuring ability to antagonize AMPA induced lethal convulsions in mice at 60 min upon intraperitoneal administration; format: functional; details: ip, 1 h
[2] = target: Glutamate receptor ionotropic, AMPA (Mus musculus, UniProt P23818+P23819+Q9Z2W8+Q9Z2W9)
Description: Compound was tested for binding affinity against Ionotropic glutamate receptor AMPA using [3H]AMPA as a radioligand.

Mus musculus [3] = assay: In vivo AMPA antagonistic activity was determined by measuring ability to antagonize AMPA induced lethal convulsions in mice at 15 min upon intraperitoneal administration; format: functional; details: ip, 0.25 h

| Ki [2] [nM] | Structure (SMILES) | ED50 (Mus musculus [1]) [mg/kg] | ED50 (Mus musculus [3]) [mg/kg] |
| --- | --- | --- | --- |
| 3000 | Oc1nc2cc(-n3cccc3)c(C(F)(F)F)cc2nc1O | – | – |
| 20000 | O=C(Cn1c(=O)c(=O)[nH]c2cc([N+](=O)[O-])c(-n3cccc3)cc21)NCCc1ccccc1 | – | – |
| 2700 | CCNC(=O)Cn1c(=O)c(=O)[nH]c2cc([N+](=O)[O-])c(-n3cccc3)cc21 | – | – |
| 25000 | O=c1[nH]c2cc(-n3cccc3)c([N+](=O)[O-])cc2n(C2CCCCC2)c1=O | – | – |
| 1600 | O=c1[nH]c2cc(C(F)(F)F)c(-n3cccc3)cc2n(C2CCCCC2)c1=O | – | – |
| 15000 | CS(=O)(=O)c1cc2[nH]c(=O)c(=O)n(C3CCCCC3)c2cc1-n1cccc1 | – | – |
| 20000 | CNC(=O)Cn1c(=O)c(=O)[nH]c2cc(C(F)(F)F)c(-n3cccc3)cc21 | – | – |
| 10000 | O=c1[nH]c2cc(Cl)c(-n3cccc3)cc2n(C2CCCCC2)c1=O | – | – |
| 8000 | O=C(CCn1c(=O)c(=O)[nH]c2cc(C(F)(F)F)c(-n3cccc3)cc21)NCc1ccccc1 | – | – |

Second part, the molecule before the results:

| Structure (SMILES) | Ki [2] [nM] | ED50 (Mus musculus [1]) [mg/kg] | ED50 (Mus musculus [3]) [mg/kg] |
| --- | --- | --- | --- |
| CCn1c(=O)c(=O)[nH]c2cc([N+](=O)[O-])c(-n3cccc3)cc21 | 850 | 12 | > 50 |
| Oc1nc2cc(C(F)(F)F)cc(-n3cccc3)c2nc1O | > 25000 | – | – |
| O=C(O)CCn1c(=O)c(=O)[nH]c2cc([N+](=O)[O-])c(-n3cccc3)cc21 | 330 | > 30 | > 30 |
| CCOC(=O)CCn1c(=O)c(=O)[nH]c2cc([N+](=O)[O-])c(-n3cccc3)cc21 | 260 | 14 | > 30 |
| CCOC(=O)Cn1c(=O)c(=O)[nH]c2cc([N+](=O)[O-])c(-n3cccc3)cc21 | 910 | 26 | > 50 |
| O=C(O)CCn1c(=O)c(=O)[nH]c2cc(C(F)(F)F)c(-n3cccc3)cc21 | 390 | > 50 | > 50 |
| O=C(Cn1c(=O)c(=O)[nH]c2cc([N+](=O)[O-])c(-n3cccc3)cc21)Nc1ccccc1 | 2100 | – | – |
| Oc1nc2cc(Cl)c(-n3cccc3)cc2nc1O | 20000 | – | – |
| CCC(CC)Cn1c(=O)c(=O)[nH]c2cc([N+](=O)[O-])c(-n3cccc3)cc21 | 6000 | – | – |
| O=[N+]([O-])c1cc2nc(O)c(O)nc2cc1-n1cccc1 | 400 | 31 | 21 |
| COC(=O)Cn1c(=O)c(=O)[nH]c2cc(C(F)(F)F)c(-n3cccc3)cc21 | > 25000 | – | – |
| O=c1[nH]c2cc([N+](=O)[O-])c(-n3cccc3)cc2n(C2CCCCC2)c1=O | 400 | 22 | > 50 |
| CCOC(=O)CCn1c(=O)c(=O)[nH]c2cc(C(F)(F)F)c(-n3cccc3)cc21 | 580 | – | – |
| O=C(Cn1c(=O)c(=O)[nH]c2cc([N+](=O)[O-])c(-n3cccc3)cc21)NCc1ccccc1 | 20000 | – | – |
| NS(=O)(=O)c1cccc2c1c([N+](=O)[O-])cc1nc(O)c(O)nc12 [NBQX] | – | > 50 | > 50 |
| O=C(O)Cn1c(=O)c(=O)[nH]c2cc([N+](=O)[O-])c(-n3cccc3)cc21 | 70 | 30 | 30 |
| O=C(O)Cn1c(=O)c(=O)[nH]c2cc(C(F)(F)F)c(-n3cccc3)cc21 | 170 | > 50 | > 50 |
| O=c1[nH]c2cc([N+](=O)[O-])c(-n3cccc3)cc2n(C2CC2)c1=O | 3500 | – | – |

Source: ChEMBL document CHEMBL1128942, “Pyrrolylquinoxalinediones: A new class of AMPA receptor antagonists” (Bioorg Med Chem Lett, 1996)
